Experimental findings from US20100260791A1, “CHLAMYDIA ANTIGENS” (President and Fellows of Harvard, priority 2007, published 2010) are described below.

Some results are limits rather than exact numbers.

Test [1] has as its system C. trachomatis-specific CD8^+ murine T cells. The test can be described thus: IFN-γ ELISA of C. trachomatis-specific CD8+ murine T cells stimulated with peptide-pulsed macrophages. The format is cell-based, mouse. The following applies: CT242 and CT812 peptides (CD8+ Ag); for IFN-γ Produced −fold: fold-increase of IFN-γ production compared to untreated T-lymphocytes (footnote); for IFN-γ Produced ng: mean (± standard deviation) of duplicate samples. From the text: (§1) A library of cells or viruses containing polynucleotides encoding C. trachomatis polypeptides, polypeptide fragments, or fusion proteins may be screened to determine which of the polypeptides, polypeptide fragments, or fusion proteins encoded by the polynucleotides are immunogenic. This may be accomplished by contacting each member of the library with a second cell (e.g., a macrophage or antigen presenting cell) capable of endocytosing the cell of the C. trachomatis library, and displaying portions of the expressed polypeptide of the library on the surface of the second cell (see, e.g., U.S. Pat. No. 6,008,415). The second cell is then contacted with a C. trachomatis-specific T cell (e.g., a C. trachomatis-specific CD4^+ or CD8^+ T cell) from an organism previously infected with C. trachomatis. The second cell may also be fixed (e.g., using paraformaldehyde) prior to contacting with a C. trachomatis-specific T cell. A C. trachomatis-specific T cell capable of binding a presented portion of the C. trachomatis protein, will result in secretion of cytokines. Cytokine secretion (e.g., secretion of IFN-γ, IL-2, or TNF) may be assayed for as known in the art, for example, using an ELISA assay.
(§2) In particular, murine H2^b bone marrow-derived macrophages (BMMs) were seeded at a density of 1×10^5 cells/well in 96-well plates. Fourteen to sixteen hours later, an aliquot of a frozen C. trachomatis library was thawed. The media was aspirated from the BMMs and replaced with a library aliquot and 60 μL of fresh RP-10 media. After 1 hour at 37° C., the BMMs were washed with PBS, 100 μL of RP-10 media added, and the cells incubated an additional hour at 37° C. The BMMs were then fixed with 1% paraformaldehyde for 15 minutes and washed extensively with PBS. […] T cells (either C. trachomatis-specific CD4^+ or CD8^+ murine T cells; 1×10^5) were added to each well in 200 μL of RP-10 media. Plates were incubated for 18-24 hours at 37° C. and the amount of IFN-γ in the supernatant of each well determined through the use of an IFN-γ ELISA assay (Endogen).
(§3) Another way to identify an antigenic peptide is to pulse the polypeptide, polypeptide fragment, or fusion protein onto macrophages and screen for their ability to activate C. trachomatis-specific CD4^+ or CD8^+ murine T cells (as described above). Peptides used in such assays can be synthesized using methods known in the art. A polypeptide, polypeptide fragment, or fusion protein that is capable of activating the C. trachomatis-specific CD4^+ or CD8^+ murine T cells is deemed immunogenic.
Pools of activated CD8^+ murine T cells for use in the identification of immunogenic C. trachomatis polypeptides, polypeptide fragments, and fusion proteins may be obtained using methods known in the art. Typically, in screening for antigens to pathogenic organisms, CD8^+ T cells are prepared from a mammal previously infected with the pathogenic organism. This preparation contains CD8^+ T cells specific for antigens from the pathogen.
C. trachomatis-specific CD8^+ T cells were harvested from mice as follows. A C57BL/6 mouse was injected intraperitoneally with 10^7 infection-forming units of C. trachomatis. Fourteen days later the mouse was euthanized and the spleen was harvested. The spleen was mashed through a 70 μm screen to create a single cell solution of splenocytes. The CD8^+ T cells were isolated from the splenocytes using anti-CD8 antibodies bound to MACS™ magnetic beads and separation protocols standard in the art (see, for e.g., MACS™ technology available from Miltenyi Biotec Inc., Auburn, Calif.). The isolated CD8^+ cells were added to macrophages of the same haplotype (H2^b), which were infected with C. trachomatis 18 hours prior in a 24-well dish. Irradiated splenocytes from a naïve mouse (C57BL/6) were added as feeder cells in media containing IL-2. The cells were incubated for 10 days during which the C. trachomatis-specific CD8^+ T cells were stimulated by the infected macrophages and replicated. […]
For orientation: ELISA stands for enzyme-linked immunosorbent assay.

Test [2] concerns C. trachomatis-specific CD4^+ murine T cells. Put plainly: IFN-γ ELISA of C. trachomatis-specific CD4+ murine T cells stimulated with peptide-pulsed macrophages. The format is cell-based, mouse. The following applies: CT144 peptides (CD4+ Ag); for IFN-γ Produced −fold: fold-increase of IFN-γ production compared to untreated T-lymphocytes (footnote); for IFN-γ Produced ng: mean (± standard deviation) of duplicate samples.
Source text: as §1, §2, §3
Activated CD4^+ murine T cells for use in the identification of immunogenic C. trachomatis polypeptides, polypeptide fragments, and fusion proteins may be obtained using methods known in the art. Splenocytes from mice were isolated 21 days after infection with C. trachomatis serovar L2 and cultured with irradiated (2,000 rad) bone marrow-derived dendritic cells, UV-inactivated C. trachomatis serovar L2, and naïve syngeneic splenocytes in RP-10 (RPMI medium 1640 supplemented with 10% fetal calf serum, L-glutamine, HEPES, 50 μM 2-β-mercaptoethanol, 50 units/ml penicillin, and 50 μg/ml streptomycin) with a-methyl mannoside and 5% supernatant from Con A-stimulated rat spleen cells. CD8^+ T cells were depleted from the culture by using Dynabeads Mouse CD8 (Invitrogen, Carlsbad, Calif.). The CD4^+ T cells were restimulated every 7 days with C. trachomatis-pulsed bone marrow-derived dendritic cells. Once a C. trachomatis-specific CD4^+ cell line was established, a CD4^+ T cell clone was isolated by limiting dilution.

For the sequence “AALYSTEDL [CT812 peptide tested with CD8+ T cells]”, in test [1], the “IFN-γ Produced −fold” value was determined as 0.5 fold and the “IFN-γ Produced ng” value was 0.02 (±0.02) ng.
Regarding “AKLECTQDLIAQGKLIVTNP [CT144 peptide tested with CD4+ T cells]”, in test [2], the “IFN-γ Produced −fold” value was 35 fold and the “IFN-γ Produced ng” value is given as 1.4 (±0.3) ng.
Regarding “AQGKLIVTNPKSDISFGGRV (listed as Chlamydia trachomatis) [amino acids 67-86 of the CT144 polypeptide]”, in test [2], the “IFN-γ Produced −fold” value was 925 fold and the “IFN-γ Produced ng” value is given as 37.0 (±1.8) ng.
Take “FQEKDADTL [CT812 peptide tested with CD8+ T cells]”: in test [1], the “IFN-γ Produced −fold” value was 2.0 fold and the “IFN-γ Produced ng” value is given as 0.09 (±0.03) ng.
As for “FSVTNPVVF (listed as Chlamydia trachomatis) [amino acids 103-111 of the CT812 polypeptide]”, in test [1], the “IFN-γ Produced −fold” value was 65 fold and the “IFN-γ Produced ng” value was 2.6 (±0.3) ng.
On the same counts, the results for “FTSSNLDSP [CT812 peptide tested with CD8+ T cells]” are 1.0 fold and 0.04 (±0.01) ng.
For “GQSVNELVY [CT812 peptide tested with CD8+ T cells]”, in that order: 0.8 fold and 0.03 (±0.02) ng.
As for “KSDISFGGRVNLADNTVNYS (listed as Chlamydia trachomatis) [amino acids 77-96 of the CT144 polypeptide]”, in test [2], the “IFN-γ Produced −fold” value stood at 40 fold and the “IFN-γ Produced ng” value is recorded as 1.6 (±0.4) ng.
“LEFASCSSL [CT812 peptide tested with CD8+ T cells]”: in test [1], the “IFN-γ Produced −fold” value is 1.5 fold and the “IFN-γ Produced ng” value is 0.06 (±0.01) ng.
On to “LNQSNLKRM (listed as Chlamydia trachomatis) [amino acids 112-120 of the CT242 polypeptide]”, for which, in test [1], the “IFN-γ Produced −fold” value came out at 160 fold and the “IFN-γ Produced ng” value is recorded as 6.5 (±2.4) ng.
“NVTQDLTSSTAKLECTQDLI [CT144 peptide tested with CD4+ T cells]”: in test [2], the “IFN-γ Produced −fold” value is on record as 35 fold and the “IFN-γ Produced ng” value is listed as 1.4 (±0.3) ng.
For “QSVNELVYV [CT812 peptide tested with CD8+ T cells]”, in test [1], the “IFN-γ Produced −fold” value is 0.3 fold and the “IFN-γ Produced ng” value is given as 0.01 (±0.01) ng.
For “SNLKRMQKI [CT242 peptide tested with CD8+ T cells]”, in that order: 10 fold and 0.40 (±0.07) ng.
On the same counts, the results for “SQAEGQYRL [CT812 peptide tested with CD8+ T cells]” are 0.8 fold and 0.03 (±0.3) ng.
On the same counts, the results for “YQILNQSNL (listed as Chlamydia trachomatis) [amino acids 109-117 of the CT242 polypeptide]” are >5,750 fold and >230 ng.
